Values joined by “and” are separate entries in the source; they are usually repeats but may differ in a detail not shown here. Identical values can stand only once.

Data set [1] in a line: DNDI: Cytotoxicity against L-6 rat myoblasts from skeletal muscle cells. The conditions noted are these: L6 rat skeletal muscle myoblast cells.
The test system of data set [2] is Trypanosoma cruzi. The data set is described as follows: microbe, parasite or virus in culture. It counts as functional, organism-based, Tulahuen LacZ, Clone C4.
Data set [3] deals with Trypanosoma cruzi. The data set is described as follows: microbe, parasite or virus in culture. The class given is functional, Tulahuen LacZ, Clone C4.
The mark [4] stands for this setting: Trypanosoma cruzi, Tulahuen LacZ, Clone C4.

As for `N#Cc1ccc(C(c2cccnc2)N2CCC(NC(=O)c3ccccc3C(F)(F)F)CC2)cc1` (centres undefined), the IC50 – broadly, the point on the concentration scale where inhibition reaches its midpoint – in data set [1] (IC50) was over 100 µM; in the data set on Trypanosoma cruzi [2], 4 nM; with Trypanosoma cruzi [2] (setting [4]), 4.5 nM. Further, the IC90 – broadly, the concentration needed for an effect of 90% – in the data set with Trypanosoma cruzi [3] is 15.5 nM; with Trypanosoma cruzi [3] (setting [4]) it was 12 nM.

With `O=[N+]([O-])c1ccc(O/N=C/c2cc(Br)c(O)c(Br)c2)c([N+](=O)[O-])c1`, the IC50 in data set [1] amounted to 83.6 µM; with Trypanosoma cruzi [2] (setting [4]), 23900 nM.

For `N#Cc1ccc(C(c2cccnc2)N2CCC(NC(=O)c3c(F)cccc3F)CC2)cc1` (centres undefined), the values for the IC50 (in data set [1] (IC50); in the data set on Trypanosoma cruzi [2]; in the data set with Trypanosoma cruzi [2] (setting [4])) were over 100 µM, 18.5 nM and 21.5 nM, respectively. In addition, the IC90 with Trypanosoma cruzi [3] was found to be 55.5 nM; with Trypanosoma cruzi [3] (setting [4]), 48 nM.

Consider `OC(Cc1ccc(Cl)nc1)c1ccc(Cl)cc1` (centres undefined), for which the IC50 in data set [1] (IC50) is over 100 µM; with Trypanosoma cruzi [2] (setting [4]), over 1000 nM.

The compound `CON=C(Cc1ccccc1)c1ccc(F)cc1` registered an IC50 with Trypanosoma cruzi [2] (setting [4]) of over 1000 nM.

For the compound `OC(c1ccccc1)(c1cncnc1)c1ccccc1Cl` (centres undefined), the results for the IC50 (in data set [1] (IC50); in the data set with Trypanosoma cruzi [2] (setting [4])) were over 100 µM and 2510 nM, respectively. Further, the 90% effect level in the data set on Trypanosoma cruzi [3] (setting [4]) (IC90) was put at 70000 nM.

For `CS(=O)(=O)N1CCN(C(c2cccnc2)c2ccc(Cl)cc2F)CC1` (centres undefined), in the data set with Trypanosoma cruzi [2], the concentration for half-maximal inhibition (IC50) is 85 nM and 45.3 nM. Further, in the data set on Trypanosoma cruzi [3], the IC90 was 380 nM and 167 nM.

As to `Cc1cc(C(=O)NC2CCN(C(c3ccc(C#N)cc3)c3cccnc3)CC2)n(C)n1` (centres undefined), the IC50 in data set [1] (IC50) is over 100 µM; in the data set with Trypanosoma cruzi [2], 46.5 nM; in the data set with Trypanosoma cruzi [2] (setting [4]), 58 nM. For the same compound, the concentration for an effect of 90% (IC90) with Trypanosoma cruzi [3] came out at 97.5 nM; in the data set on Trypanosoma cruzi [3] (setting [4]), 130 nM.

Regarding `N#Cc1ccc(C(O)(c2ccc(C(F)(F)F)cc2)c2cccnc2)cc1` (centres undefined), the IC50 in data set [1] (IC50) worked out at 63.3 µM; with Trypanosoma cruzi [2], 18 nM; in the data set with Trypanosoma cruzi [2] (setting [4]), 12 nM. The IC90 with Trypanosoma cruzi [3] was found to be 33 nM; with Trypanosoma cruzi [3] (setting [4]), 32 nM.

Compound `O=C(C1CC1)N1CCC(NC(c2ccc(Cl)cc2)c2cccnc2)CC1` (centres undefined) gave an IC50 with Trypanosoma cruzi [2] of 110 nM. In other words, the sub-micromolar range.

Consider `OC(c1ccc(Cl)cc1)(c1ccccn1)c1ccccc1Cl` (centres undefined), for which the IC50 in data set [1] is over 100 µM; with Trypanosoma cruzi [2] (setting [4]), 27400 nM. For the same compound, the IC90 with Trypanosoma cruzi [3] (setting [4]) was 90000 nM.

As for `Clc1ccc(C(c2cncnc2)c2ccccc2Cl)cc1` (centres undefined), the IC50 was over 100 µM in data set [1] (IC50) and 1070 nM in the data set with Trypanosoma cruzi [2] (setting [4]). This compound returned an IC90 in the data set with Trypanosoma cruzi [3] (setting [4]) of 80000 nM.

With `COc1ccccc1C(O)(c1ccc(Cl)cc1)c1cncnc1` (centres undefined), the IC50 in data set [1] (IC50) is over 100 µM; in the data set on Trypanosoma cruzi [2] (setting [4]), 1140 nM. Further, the 90% effect level in the data set on Trypanosoma cruzi [3] (setting [4]) (IC90) was put at 8700 nM.

With `Cc1ncsc1C(=O)N1CCC(NC(c2ccc(C(F)(F)F)cc2)c2cccnc2)CC1` (centres undefined), the IC50 in data set [1] (IC50) is over 100 µM; with Trypanosoma cruzi [2] it was 58 nM; in the data set with Trypanosoma cruzi [2] (setting [4]) it was 67 nM. In addition, the IC90 with Trypanosoma cruzi [3] turned out to be 180 nM; in the data set on Trypanosoma cruzi [3] (setting [4]), 218 nM.

As to `CS(=O)(=O)N1CCN(C(c2cncnc2)c2ccc(Cl)cc2F)CC1` (centres undefined), the IC50 in data set [1] (IC50) is over 100 µM; with Trypanosoma cruzi [2] it was 390 nM; in the data set on Trypanosoma cruzi [2] (setting [4]), 444 nM. Moreover, the 90% effect concentration (IC90) is 850 nM in the data set with Trypanosoma cruzi [3] and 724 nM in the data set on Trypanosoma cruzi [3] (setting [4]).

For `OC(c1ccc(Cl)cc1)(c1cnccn1)c1ccccc1Cl` (centres undefined), the IC50 in data set [1] (IC50) is over 100 µM; in the data set on Trypanosoma cruzi [2] (setting [4]), 440 nM. In the data set with Trypanosoma cruzi [3] (setting [4]), this compound yielded an IC90 of 7900 nM.

For `N#Cc1cccc(OC2CCN(C(c3ccc(C(F)(F)F)cc3)c3cccnc3)CC2)c1` (centres undefined), the figures for the IC50 with Trypanosoma cruzi [2] and in the data set with Trypanosoma cruzi [2] (setting [4]) were 8.25 nM and 7.5 nM, respectively. The IC90 with Trypanosoma cruzi [3] is 12.5 nM and 29 nM.

As for `OC(c1ccc(Cl)cc1)(c1cccnc1)c1cccc(F)c1` (centres undefined), the IC50 with Trypanosoma cruzi [2] (setting [4]) worked out at 100 nM. The same compound displayed an IC90 in the data set with Trypanosoma cruzi [3] (setting [4]) of 330 nM.

On to `COc1ccc(C(O)(c2cncnc2)C2CC2)cc1` (centres undefined), for which the IC50 was over 100 µM in data set [1] and 20900 nM in the data set on Trypanosoma cruzi [2] (setting [4]). The IC90 in the data set with Trypanosoma cruzi [3] (setting [4]) is 62500 nM.

As for `OC(c1ccccc1)(c1ccc(Cl)cc1)c1cncnc1` (centres undefined), the IC50 in data set [1] (IC50) is over 100 µM; with Trypanosoma cruzi [2] (setting [4]) it was 462 nM.

For `OC(c1ccc(F)cc1)(c1ccc(Cl)cc1)c1cncnc1` (centres undefined), the IC50 in data set [1] (IC50) was over 100 µM; with Trypanosoma cruzi [2] (setting [4]), 641 nM.

For `CC(C)C(O)(c1ccc(Cl)cc1)c1cncnc1` (centres undefined), the IC50 in data set [1] (IC50) is over 100 µM; in the data set with Trypanosoma cruzi [2] (setting [4]) it was 2240 nM. In the data set on Trypanosoma cruzi [3] (setting [4]), this compound gave a concentration for an effect of 90% (IC90) of 21000 nM.

As for `Clc1ccc(C(c2ccc(Cl)cc2)c2cccnc2)cc1`, in the data set on Trypanosoma cruzi [2] (setting [4]), the IC50 was 80 nM. In the data set with Trypanosoma cruzi [3] (setting [4]), the IC90 came to 1600 nM.

Consider `C#CCOC(=O)[C@@H](C)Oc1ccc(Oc2ncc(Cl)cc2F)cc1` [CLODINAFOP PROPARGYL], for which the IC50 was over 100 µM in data set [1] (IC50) and 67500 nM with Trypanosoma cruzi [2] (setting [4]).

As to `OC(c1ccc(Cl)cc1)(c1cncnc1)c1ccccc1Cl` (centres undefined) [FENARIMOL], the IC50 in the data set on Trypanosoma cruzi [2] (setting [4]) was 250 nM. The IC90 in the data set with Trypanosoma cruzi [3] (setting [4]) was found to be 560 nM.

For `CC(Oc1ccc(Oc2nc3ccc(Cl)cc3o2)cc1)C(=O)O` (centres undefined) [FENOXAPROP], the figures for the IC50 (in data set [1]; in the data set on Trypanosoma cruzi [2] (setting [4])) were over 100 µM and over 100000 nM, respectively.

Consider `CNC1=C(c2cccc(C(F)(F)F)c2)C(=O)C(c2ccccc2)O1` (centres undefined) [FLURTAMONE], for which the concentration for half-maximal inhibition (IC50) was determined as 82.8 µM in data set [1] and 55500 nM with Trypanosoma cruzi [2] (setting [4]).

As for `CON(C)C(=O)Nc1ccc(Br)cc1` [METOBROMURON], the IC50 in data set [1] was over 100 µM; in the data set with Trypanosoma cruzi [2] (setting [4]) it was 71800 nM.

For `CC(Oc1ccc(Cl)cc1Cl)C(=O)O` (stereo not drawn) [RAC-DICHLORPROP], the figures for the IC50 (in data set [1]; with Trypanosoma cruzi [2] (setting [4])) were over 100 µM and 74000 nM, respectively.

Regarding `Oc1cc(Cl)ccc1Oc1ccc(Cl)cc1Cl` [TRICLOSAN], the figures for the IC50 (in data set [1]; with Trypanosoma cruzi [2] (setting [4])) were 82.2 µM and 53000 nM, respectively.

The values above are taken from ChEMBL document CHEMBL1862790, “Optimisation of fenarimol series for the treatment of Chagas disease”.
